What all share (type): functional, cell-based
In data set [1] the target is ATP-dependent translocase ABCB1 (Rattus norvegicus, UniProt P43245). Nature of the data set: TP_TRANSPORTER: Luciferase assay in H35 hepatoma cells.
Data set [2] has as its target Multidrug resistance protein 1a (Rattus norvegicus) (UniProt Q6PSM0). Put plainly: TP_TRANSPORTER: Northern blot from H35 hepatoma cells.
For data set [3] the target is unchanged. Put plainly: TP_TRANSPORTER: Western blot, H35 hepatoma cells.

Consider three compounds from ChEMBL document CHEMBL2073896, “Bromocriptine transcriptionally activates the multidrug resistance gene (pgp2/mdr1b) by a novel pathway” (J Biol Chem, 1997).

Multidrug resistance protein 1a (Rattus norvegicus), sequence (Q6PSM0 as listed by the source): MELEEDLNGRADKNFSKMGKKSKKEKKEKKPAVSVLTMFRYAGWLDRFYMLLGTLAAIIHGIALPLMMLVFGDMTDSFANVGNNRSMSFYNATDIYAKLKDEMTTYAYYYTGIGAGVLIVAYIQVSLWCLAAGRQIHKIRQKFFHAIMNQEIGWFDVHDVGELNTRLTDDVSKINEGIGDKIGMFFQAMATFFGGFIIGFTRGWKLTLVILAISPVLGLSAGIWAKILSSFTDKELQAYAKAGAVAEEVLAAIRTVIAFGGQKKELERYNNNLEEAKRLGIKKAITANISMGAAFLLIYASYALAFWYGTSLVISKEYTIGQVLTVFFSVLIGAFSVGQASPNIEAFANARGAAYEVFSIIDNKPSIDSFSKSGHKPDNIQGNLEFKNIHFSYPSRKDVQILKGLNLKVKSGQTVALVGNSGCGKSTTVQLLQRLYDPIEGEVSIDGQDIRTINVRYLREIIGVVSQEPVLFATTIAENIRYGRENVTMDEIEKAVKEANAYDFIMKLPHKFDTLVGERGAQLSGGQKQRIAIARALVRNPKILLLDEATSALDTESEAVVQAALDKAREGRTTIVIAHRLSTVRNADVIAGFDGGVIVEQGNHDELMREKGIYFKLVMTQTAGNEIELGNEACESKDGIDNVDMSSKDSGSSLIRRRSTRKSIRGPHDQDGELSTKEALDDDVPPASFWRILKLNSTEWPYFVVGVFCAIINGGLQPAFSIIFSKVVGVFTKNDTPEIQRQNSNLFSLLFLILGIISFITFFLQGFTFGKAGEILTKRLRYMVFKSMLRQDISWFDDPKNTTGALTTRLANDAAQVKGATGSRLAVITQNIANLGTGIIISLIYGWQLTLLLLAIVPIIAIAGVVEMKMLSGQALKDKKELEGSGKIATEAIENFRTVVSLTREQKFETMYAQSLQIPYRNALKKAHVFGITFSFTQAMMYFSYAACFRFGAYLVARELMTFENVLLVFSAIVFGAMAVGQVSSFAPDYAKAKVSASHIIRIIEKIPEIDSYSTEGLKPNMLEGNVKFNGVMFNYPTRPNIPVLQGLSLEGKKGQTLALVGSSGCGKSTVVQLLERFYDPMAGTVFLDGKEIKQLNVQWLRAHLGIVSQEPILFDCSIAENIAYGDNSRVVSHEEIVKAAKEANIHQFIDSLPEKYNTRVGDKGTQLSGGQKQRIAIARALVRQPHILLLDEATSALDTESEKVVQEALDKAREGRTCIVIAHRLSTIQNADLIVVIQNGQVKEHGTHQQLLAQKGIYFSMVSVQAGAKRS
ATP-dependent translocase ABCB1, sequence (P43245 whole entry): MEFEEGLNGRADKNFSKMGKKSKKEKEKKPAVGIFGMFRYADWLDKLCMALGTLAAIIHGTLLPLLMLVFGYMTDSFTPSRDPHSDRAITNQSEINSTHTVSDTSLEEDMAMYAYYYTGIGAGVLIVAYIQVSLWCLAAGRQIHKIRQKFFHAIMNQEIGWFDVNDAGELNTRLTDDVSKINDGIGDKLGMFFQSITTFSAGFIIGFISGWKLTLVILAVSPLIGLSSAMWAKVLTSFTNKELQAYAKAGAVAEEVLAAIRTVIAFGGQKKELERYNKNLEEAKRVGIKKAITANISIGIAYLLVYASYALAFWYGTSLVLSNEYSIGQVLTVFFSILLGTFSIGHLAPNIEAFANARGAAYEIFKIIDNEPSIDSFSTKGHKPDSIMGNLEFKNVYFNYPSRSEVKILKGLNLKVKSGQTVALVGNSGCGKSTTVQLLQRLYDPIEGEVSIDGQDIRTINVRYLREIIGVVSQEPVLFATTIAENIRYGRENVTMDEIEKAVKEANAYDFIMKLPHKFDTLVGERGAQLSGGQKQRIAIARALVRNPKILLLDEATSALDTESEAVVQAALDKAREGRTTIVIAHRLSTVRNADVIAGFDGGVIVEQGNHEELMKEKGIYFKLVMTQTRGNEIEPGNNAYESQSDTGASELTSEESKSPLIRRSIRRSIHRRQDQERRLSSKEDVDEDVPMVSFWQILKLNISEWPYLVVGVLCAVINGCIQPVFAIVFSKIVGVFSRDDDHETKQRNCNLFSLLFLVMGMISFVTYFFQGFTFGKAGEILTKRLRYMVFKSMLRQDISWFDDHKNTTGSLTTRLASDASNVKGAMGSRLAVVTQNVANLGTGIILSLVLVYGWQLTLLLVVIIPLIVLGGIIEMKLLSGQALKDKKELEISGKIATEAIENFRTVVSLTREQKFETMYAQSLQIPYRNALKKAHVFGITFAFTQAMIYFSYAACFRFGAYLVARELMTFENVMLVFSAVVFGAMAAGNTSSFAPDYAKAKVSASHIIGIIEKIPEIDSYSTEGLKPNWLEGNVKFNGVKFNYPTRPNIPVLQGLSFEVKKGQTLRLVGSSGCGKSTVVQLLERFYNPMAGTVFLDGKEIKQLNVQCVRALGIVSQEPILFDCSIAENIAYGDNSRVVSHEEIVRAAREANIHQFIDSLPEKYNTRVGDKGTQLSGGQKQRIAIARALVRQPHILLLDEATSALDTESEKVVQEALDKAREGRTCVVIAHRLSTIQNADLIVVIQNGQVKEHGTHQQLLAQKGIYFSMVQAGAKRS

`CCCN1CCc2cccc3c2[C@H]1Cc1ccc(O)c(O)c1-3.Cl`: the Activity result in data set [1] was “inducer [+]”.

As to `CCCN1CCC[C@@H]2Cc3n[nH]cc3C[C@H]21` [QUINPIROLE], the Activity entry in data set [1] was “inducer [+]”.

In the case of `CC(C)C[C@H]1C(=O)N2CCC[C@H]2[C@]2(O)O[C@](NC(=O)[C@@H]3C=C4c5cccc6[nH]c(Br)c(c56)C[C@H]4N(C)C3)(C(C)C)C(=O)N12`, the Activity entry in data set [2] and in data set [3] was “inducer [+]” throughout.
